The text below walks through data of ChEMBL document CHEMBL1201862, “PubChem BioAssay data set” (2004).

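Grown in 96-well plates, cells were treated for 48 hours with each compound at five concentrations. Insufficient inhibition: endpoint recorded as highest concentration tested. The concentration for 50% growth inhibition is given as GI50.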 Activity calls are given as the source filed them. No stated cut-off is given here; in the data, active = GI50 up to about 1.1 µM and inactive = higher.

Some test systems named below: CCRF-CEM; EKVX; HCT-116; Hs-578T; K562; M14; MOLT-4; Malme-3M; NCI-H23; OVCAR-5; PC-3; SF-295; SF-539; SN12C; SNB-19; SW-620; U-251; UACC-257; UO-31; NCI-H522.
What all share (experiment): NCI tumour cell line growth inhibition, 48 h

Turning to `COc1ccc(OC)c(-c2nc(O)c3ccccc3n2)c1`, the GI50 in the test on CCRF-CEM, with EKVX, with HCT-116, in the test on Hs-578T, with K562 and with M14 was > 100 µM (inactive) throughout. The GI50 with MOLT-4 was 40.6 µM (inactive); with Malme-3M it was > 100 µM (inactive); with NCI-H23, > 100 µM (inactive); in the test on OVCAR-5, > 100 µM (inactive); in the test with PC-3, > 100 µM (inactive); in the test on SF-295 it was > 100 µM (inactive). The GI50 in the test on SF-539 is 50.7 µM (inactive); with SN12C, > 100 µM (inactive); in the test on SNB-19, > 100 µM (inactive); in the test on SW-620, > 100 µM (inactive); in the test on U-251 it was > 100 µM (inactive); with UACC-257 it was > 100 µM (inactive). In addition, the GI50 with UO-31 was > 100 µM (inactive).

Take `C/C(=N\NC(=S)NC1CCCC1)c1ccccn1`: the GI50 in the test on CCRF-CEM is < 0.01 µM (active); with EKVX, < 0.01 µM (active); in the test with HCT-116 it was < 0.01 µM (active); in the test with Hs-578T it was 36.6 µM (inactive); with K562 it was < 0.01 µM (active); with M14 it was < 0.01 µM (active). For the same molecule, the GI50 in the test on MOLT-4 is < 0.01 µM (active); in the test with Malme-3M, 0.434 µM (active); in the test on NCI-H23, < 0.0177 µM (active); with OVCAR-5, 0.0356 µM (active); in the test on PC-3, < 0.01 µM (active); with SF-295 it was 0.223 µM (active). The GI50 is 1.02 µM (active) in the test with SF-539; 0.299 µM (active) with SN12C; 1.05 µM (active) with SNB-19; < 0.01 µM (active) in the test on SW-620; 0.0753 µM (active) in the test on U-251; < 0.01 µM (active) in the test on UACC-257. Moreover, the GI50 in the test on UO-31 was < 0.026 µM (active).

`CCOC(=O)C(NC(=O)c1ccccc1)(Nc1ccc(S(=O)(=O)Nc2nc(C)cc(C)n2)cc1)C(F)(F)F` (stereo unspecified): the GI50 in the test with CCRF-CEM, in the test on EKVX, in the test on HCT-116, in the test on Hs-578T, in the test with K562 and with M14 was > 100 µM (inactive) each time. Further, the GI50 with MOLT-4, in the test with Malme-3M, in the test with NCI-H23, with OVCAR-5, in the test on PC-3 and in the test on SF-295 was > 100 µM (inactive) throughout. The GI50 in the test on SF-539, in the test with SN12C, with SNB-19, with SW-620, with U-251 and with UACC-257 was > 100 µM (inactive) each time. For the same molecule, the GI50 in the test on UO-31 was > 100 µM (inactive).

Turning to `CC1CC(C)C(C#N)N(C)c2ccccc21` (stereo unspecified), the GI50 in the test on CCRF-CEM is 51.8 µM (inactive); with EKVX, > 100 µM (inactive); with HCT-116 it was 36.5 µM (inactive); in the test with Hs-578T, > 100 µM (inactive); with K562, 87.9 µM (inactive); in the test with M14, > 100 µM (inactive). Also, the GI50 in the test on MOLT-4 was 66.7 µM (inactive); in the test with Malme-3M, > 100 µM (inactive); with NCI-H23, > 100 µM (inactive); with OVCAR-5, > 100 µM (inactive); in the test on PC-3 it was > 100 µM (inactive); in the test with SF-295, > 100 µM (inactive). Moreover, the GI50 in the test with SF-539, in the test with SN12C, with SNB-19, with SW-620, with UACC-257 and in the test with UO-31 was > 100 µM (inactive) throughout.

As to `C=C1C(=O)OC2CCN3CC=C(COC(=O)C(C)(O)C4(CO4)C1C)C23` (stereo unspecified), the GI50 with CCRF-CEM, in the test on EKVX, in the test with HCT-116, with Hs-578T, with K562 and with M14 was > 100 µM (inactive) each time. Also, the GI50 in the test with MOLT-4, in the test on Malme-3M, in the test with NCI-H23, with NCI-H522, in the test with PC-3 and with SF-295 was > 100 µM (inactive) each time. The GI50 with SN12C, in the test on SNB-19, in the test on SW-620, in the test with U-251, with UACC-257 and in the test with UO-31 was > 100 µM (inactive) each time.

In the case of `COc1ccc2c(c1)[nH]c1c3ccc(OC)cc3oc(=O)c21`, the GI50 is > 100 µM (inactive) in the test with CCRF-CEM; > 100 µM (inactive) in the test on EKVX; > 100 µM (inactive) in the test on HCT-116; 55.2 µM (inactive) in the test with Hs-578T; > 100 µM (inactive) in the test with K562; > 100 µM (inactive) with M14. The GI50 with MOLT-4, in the test on Malme-3M, in the test with NCI-H23, with OVCAR-5, in the test with PC-3 and in the test on SF-295 was > 100 µM (inactive) in each case. Moreover, the GI50 with SF-539, in the test on SN12C, with SNB-19, in the test on SW-620, in the test with U-251 and with UACC-257 was > 100 µM (inactive) throughout. Further, the GI50 in the test with UO-31 was > 100 µM (inactive).

Turning to `O=C1CC2CC(CC3(CO3)C2)C1F` (stereo unspecified), the GI50 with CCRF-CEM, in the test with EKVX, in the test on HCT-116, in the test with Hs-578T, in the test with K562 and in the test with M14 was > 100 µM (inactive) each time. The GI50 in the test with MOLT-4, with Malme-3M, in the test on NCI-H23, in the test with NCI-H522, in the test on OVCAR-5 and with PC-3 was > 100 µM (inactive) in each case. Also, the GI50 with SF-295, in the test on SN12C, in the test with SNB-19, with U-251, in the test on UACC-257 and with UO-31 was > 100 µM (inactive) each time.

As to `COc1ccccc1C(=O)NO`, the GI50 in the test on CCRF-CEM, in the test on EKVX, with HCT-116, with Hs-578T, in the test with K562 and in the test with M14 was > 100 µM (inactive) each time. Also, the GI50 in the test with MOLT-4 was > 100 µM (inactive); in the test on NCI-H23, > 100 µM (inactive); with NCI-H522, 49.1 µM (inactive); in the test on OVCAR-5, > 100 µM (inactive); in the test on PC-3, > 100 µM (inactive); with SF-295 it was > 100 µM (inactive). Further, the GI50 in the test with SN12C, with SNB-19, with SW-620, in the test on U-251, in the test on UACC-257 and with UO-31 was > 100 µM (inactive) throughout.

For `O=C(O)c1ccccc1CC1Cc2cc3c(cc2C1)CCC3`, the GI50 in the test with CCRF-CEM, in the test with EKVX, in the test on HCT-116, with Hs-578T, in the test with K562 and in the test on M14 was > 100 µM (inactive) each time. For the same molecule, the GI50 in the test with MOLT-4 was > 100 µM (inactive); in the test on Malme-3M, > 100 µM (inactive); in the test with NCI-H23, 49.5 µM (inactive); in the test on NCI-H522, > 100 µM (inactive); in the test with OVCAR-5 it was > 100 µM (inactive); in the test on SF-295 it was > 100 µM (inactive). Also, the GI50 in the test with SF-539, with SN12C, with SNB-19, in the test on SW-620, in the test with U-251 and in the test on UACC-257 was > 100 µM (inactive) in each case. For the same molecule, the GI50 in the test on UO-31 is > 100 µM (inactive).

Take `CC(C)(C)[Si](C)(C)OCCC1CC2(S(=O)(=O)C3=CC=C=C=C3)ON1CC2S(=O)(=O)c1ccccc1` (stereo unspecified): the GI50 in the test with CCRF-CEM is 2.56 µM (inactive); with EKVX it was > 10 µM (inactive); in the test with HCT-116 it was > 10 µM (inactive); in the test with Hs-578T, > 10 µM (inactive); with M14, > 10 µM (inactive); in the test with MOLT-4, > 10 µM (inactive). Also, the GI50 with NCI-H23, in the test with OVCAR-5, in the test with SF-295, in the test on SF-539, in the test on SN12C and with SNB-19 was > 10 µM (inactive) each time. Moreover, the GI50 in the test with SW-620 was > 10 µM (inactive); in the test on U-251, > 100 µM (inactive); in the test on UACC-257, > 10 µM (inactive); in the test with UO-31 it was > 10 µM (inactive).

On to `COc1cc(C(=O)O[C@H]2CCC3CCC2N3C)cc(OC)c1OC` (stereo partly specified), for which the GI50 in the test on CCRF-CEM, with EKVX, in the test with HCT-116, in the test on Hs-578T, in the test on K562 and in the test with M14 was > 100 µM (inactive) each time. In addition, the GI50 with MOLT-4, with Malme-3M, with NCI-H23, in the test with OVCAR-5, with SF-295 and with SF-539 was > 100 µM (inactive) in each case. Also, the GI50 with SN12C was > 100 µM (inactive); in the test on SNB-19, > 100 µM (inactive); with SW-620, > 100 µM (inactive); in the test on U-251, > 100 µM (inactive); in the test on UACC-257, > 100 µM (inactive); with UO-31 it was 43.2 µM (inactive).
